Where “and” joins values, the source holds several entries; their conditions need not be identical. Identical values can stand only once.

The target of one series is hCA I (Homo sapiens, UniProt P00915). The series can be described thus: hCA I inhibition, stopped-flow assay. The format is biochemical. The conditions noted are these: stopped-flow technique; mean from three different assays, errors ±5–10%.
The target in another series is hCA II (Homo sapiens, UniProt P00918). The experiment in a line: hCA II inhibition, stopped-flow assay. Format: biochemical. The conditions noted are these: stopped-flow technique; mean from three different assays, errors ±5–10%.
A further series addresses hCA XII (Homo sapiens, UniProt O43570). The series can be described thus: hCA XII inhibition, stopped-flow assay. Format: biochemical. The settings on record: for Selectivity Analysis hCA II/XII / Selectivity Analysis hCA I/XII: selectivity index (SI); for Selectivity Analysis hCA II/XII: ratio of Ki hCA II to Ki hCA XII; for Selectivity Analysis hCA I/XII: ratio of Ki hCA I to Ki hCA XII; for Ki: stopped-flow technique, mean from three different assays, errors ±5–10%.

The next series has as its target hCA IX (Homo sapiens, UniProt Q16790). The experiment in a line: hCA IX inhibition, stopped-flow assay. The conditions noted are these: for Selectivity Analysis hCA I/IX / Selectivity Analysis hCA II/IX: selectivity index (SI); for Selectivity Analysis hCA I/IX: ratio of Ki hCA I to Ki hCA IX; for Selectivity Analysis hCA II/IX: ratio of Ki hCA II to Ki hCA IX; for Ki: stopped-flow technique, mean from three different assays, errors ±5–10%. The format is biochemical.

Chain of hCA I (P00915 whole entry): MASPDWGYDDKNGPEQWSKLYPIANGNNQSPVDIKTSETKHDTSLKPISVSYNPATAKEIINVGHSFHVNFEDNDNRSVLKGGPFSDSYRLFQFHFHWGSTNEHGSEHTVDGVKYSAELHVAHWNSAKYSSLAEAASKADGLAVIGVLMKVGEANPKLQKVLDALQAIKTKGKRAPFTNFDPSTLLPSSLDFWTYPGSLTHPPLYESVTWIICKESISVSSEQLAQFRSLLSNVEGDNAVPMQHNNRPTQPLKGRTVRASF
Chain of hCA XII (O43570 25-354): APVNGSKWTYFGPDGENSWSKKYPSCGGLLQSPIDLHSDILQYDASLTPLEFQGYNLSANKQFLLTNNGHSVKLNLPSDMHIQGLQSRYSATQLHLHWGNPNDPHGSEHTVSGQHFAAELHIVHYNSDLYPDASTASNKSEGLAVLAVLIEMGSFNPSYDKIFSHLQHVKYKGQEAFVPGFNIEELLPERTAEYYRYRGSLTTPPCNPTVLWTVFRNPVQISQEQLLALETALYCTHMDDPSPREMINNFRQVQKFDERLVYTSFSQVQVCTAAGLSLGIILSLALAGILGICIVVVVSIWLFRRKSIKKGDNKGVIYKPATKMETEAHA

With `NS(=O)(=O)c1ccc(CCn2c(S)nc3ccccc3c2=O)cc1` [Compound 1, 4-(2-(2-mercapto-4-oxoquinazolin-3(4H)-yl)ethyl)benzenesulfonamide], the Ki at hCA I is 31.5 nM; at hCA II it was 0.62 nM.

`CCOC(=O)CSc1nc2ccccc2c(=O)n1CCc1ccc(S(N)(=O)=O)cc1` [Compound 2, Ethyl 2-((4-oxo-3-(4-sulfamoylphenethyl)-3,4-dihydroquinazolin-2-yl)thio)acetate] returned a melting point of 210 to 211 °C. Also, the “Selectivity Analysis hCA II/XII” value at hCA XII amounted to 0.61. In addition, the Ki at hCA II fell in the range of 16.9 to 21.3 nM.

With `NNC(=O)CSc1nc2ccccc2c(=O)n1CCc1ccc(S(N)(=O)=O)cc1` [Compound 3, 4-(2-(2-((2-Hydrazineyl-2-oxoethyl)thio)-4-oxoquinazolin-3(4H)-yl)ethyl)benzenesulfonamide], the melting point was 253 to 254 °C. At hCA I, the affinity corresponds to a Ki of 87.6 nM. Moreover, at hCA XII, the “Selectivity Analysis hCA I/XII” value is 16.22, the “Selectivity Analysis hCA II/XII” value worked out at 3.12 and the affinity corresponds to a Ki of 5.4 nM. In addition, on hCA IX, the “Selectivity Analysis hCA I/IX” value was 1.68, the “Selectivity Analysis hCA II/IX” value was 0.32 and the affinity corresponds to a Ki of 52.1 nM. The Ki on hCA II was 16.9 nM.

With `NS(=O)(=O)c1ccc(CCn2c(SCC(=O)N/N=C/c3ccccc3)nc3ccccc3c2=O)cc1` [Compound 4, 4-(2-(2-((2-(2-Benzylidenehydrazineyl)-2-oxoethyl)thio)-4-oxoquinazolin-3(4H)-yl)ethyl)benzenesulfonamide], the melting point lay in the range of 296 to 298 °C. Affinity at hCA I was put at a Ki of 152 nM. This molecule showed a Ki at hCA XII of 38.4 nM. The same molecule displayed a Ki at hCA IX of 61.7 nM. The molecule also came in with a Ki on hCA II of 52.6 nM.

Take `NS(=O)(=O)c1ccc(CCn2c(SCC(=O)NN=Cc3ccccc3Cl)nc3ccccc3c2=O)cc1` [Compound 5, 4-(2-(2-((2-(2-(2-Chlorobenzylidene)hydrazineyl)-2-oxoethyl)thio)-4-oxoquinazolin-3(4H)-yl)ethyl)benzenesulfonamide]: the melting point was 288 to 290 °C. Moreover, the Ki at hCA I is 940 nM. Besides, on hCA XII, the “Selectivity Analysis hCA I/XII” value amounted to 20.39, the “Selectivity Analysis hCA II/XII” value is on record as 5.45 and the affinity corresponds to a Ki of 46.1 nM. Also, on hCA IX, the “Selectivity Analysis hCA I/IX” value came to 35.6, the “Selectivity Analysis hCA II/IX” value was 9.51 and the Ki is 26.4 nM. The molecule also had a Ki on hCA II of 251 nM.

As to `NS(=O)(=O)c1ccc(CCn2c(SCC(=O)NN=Cc3ccc(Cl)cc3)nc3ccccc3c2=O)cc1` [Compound 6, 4-(2-(2-((2-(2-(4-Chlorobenzylidene)hydrazineyl)-2-oxoethyl)thio)-4-oxoquinazolin-3(4H)-yl)ethyl)benzenesulfonamide], the melting point was 288 to 289 °C. Also, the affinity at hCA I corresponds to a Ki of 568 nM. On hCA XII, the “Selectivity Analysis hCA I/XII” value was determined as 8.37, the “Selectivity Analysis hCA II/XII” value was determined as 1.87 and the Ki was found to be 67.8 nM. Besides, on hCA IX, the “Selectivity Analysis hCA I/IX” value came to 6.37; the “Selectivity Analysis hCA II/IX” value is listed as 1.42; the Ki is 88.6 nM and 89.1 nM. This molecule gave a Ki at hCA II of 127 nM.

`NS(=O)(=O)c1ccc(CCn2c(SCC(=O)NN=Cc3ccc(Cl)cc3Cl)nc3ccccc3c2=O)cc1` [Compound 7, 4-(2-(2-((2-(2-(2,4-Dichlorobenzylidene)hydrazineyl)-2-oxoethyl)thio)-4-oxoquinazolin-3(4H)-yl)ethyl)benzenesulfonamide] came in with a melting point of 304 to 305 °C. For the same molecule, the Ki on hCA I came out at 2350 nM. For the same molecule, on hCA XII, the “Selectivity Analysis hCA I/XII” value turned out to be 26.33, the “Selectivity Analysis hCA II/XII” value was determined as 4.84 and the Ki stood at 89.4 nM. In addition, at hCA IX, the “Selectivity Analysis hCA I/IX” value amounted to 107, the “Selectivity Analysis hCA II/IX” value is listed as 19.67 and the Ki worked out at 22 nM. Further, the affinity at hCA II corresponds to a Ki of 433 nM.

In the case of `NS(=O)(=O)c1ccc(CCn2c(SCC(=O)NN=Cc3ccc(Cl)c(Cl)c3)nc3ccccc3c2=O)cc1` [Compound 8, 4-(2-(2-((2-(2-(3,4-Dichlorobenzylidene)hydrazineyl)-2-oxoethyl)thio)-4-oxoquinazolin-3(4H)-yl)ethyl)benzenesulfonamide], the melting point lay in the range of 271 to 272 °C. The affinity on hCA I, expressed as Ki, was 1830 nM. At hCA XII, the “Selectivity Analysis hCA I/XII” value is 28.81, the “Selectivity Analysis hCA II/XII” value was found to be 5.12 and the Ki came to 63.4 nM. Besides, at hCA IX, the “Selectivity Analysis hCA I/IX” value was 52.5, the “Selectivity Analysis hCA II/IX” value is reported as 9.33 and the Ki was determined as 34.8 nM. On hCA II, affinity was put at a Ki of 325 nM.

Molecule `NS(=O)(=O)c1ccc(CCn2c(SCC(=O)NN=Cc3c(Cl)cccc3Cl)nc3ccccc3c2=O)cc1` [Compound 9, 4-(2-(2-((2-(2-(2,6-Dichlorobenzylidene)hydrazineyl)-2-oxoethyl)thio)-4-oxoquinazolin-3(4H)-yl)ethyl)benzenesulfonamide] displayed a melting point of 296 to 297 °C. The affinity on hCA I corresponds to a Ki of 2260 nM. Besides, on hCA XII, the “Selectivity Analysis hCA I/XII” value was found to be 40.35, the “Selectivity Analysis hCA II/XII” value worked out at 2.95 and the affinity corresponds to a Ki of 55.9 nM. In addition, on hCA IX, the “Selectivity Analysis hCA I/IX” value was 45.85, the “Selectivity Analysis hCA II/IX” value is 3.35 and the Ki stood at 49.2 nM. Also, the affinity on hCA II corresponds to a Ki of 165 nM.

`NS(=O)(=O)c1ccc(CCn2c(SCC(=O)NN=Cc3ccccc3F)nc3ccccc3c2=O)cc1` [Compound 10, 4-(2-(2-((2-(2-(2-Fluorobenzylidene)hydrazineyl)-2-oxoethyl)thio)-4-oxoquinazolin-3(4H)-yl)ethyl)benzenesulfonamide] displayed a melting point of 276 to 277 °C. The Ki on hCA I amounted to 274 nM. Besides, on hCA XII, the “Selectivity Analysis hCA I/XII” value was found to be 11.96, the “Selectivity Analysis hCA II/XII” value came to 1.56 and the Ki came to 22.9 nM. For the same molecule, at hCA IX, the “Selectivity Analysis hCA I/IX” value amounted to 13.91, the “Selectivity Analysis hCA II/IX” value was found to be 1.81 and the Ki is 19.7 nM. This molecule also registered a Ki on hCA II of 35.8 nM.

As for `NS(=O)(=O)c1ccc(CCn2c(SCC(=O)NN=Cc3ccc(F)cc3)nc3ccccc3c2=O)cc1` [Compound 11, 4-(2-(2-((2-(2-(4-Fluorobenzylidene)hydrazineyl)-2-oxoethyl)thio)-4-oxoquinazolin-3(4H)-yl)ethyl)benzenesulfonamide], the melting point lay in the range of 292 to 293 °C. Moreover, the affinity at hCA I, expressed as Ki, was 132 nM. On hCA XII, the “Selectivity Analysis hCA I/XII” value amounted to 8.35, the “Selectivity Analysis hCA II/XII” value worked out at 3.13 and the Ki is 15.8 nM. For the same molecule, on hCA IX, the “Selectivity Analysis hCA I/IX” value was found to be 8.57; the “Selectivity Analysis hCA II/IX” value was 3.21; the affinity, expressed as Ki, was 15.4 nM. The molecule further yielded a Ki on hCA II of 49.5 nM.

`Cc1ccccc1C=NNC(=O)CSc1nc2ccccc2c(=O)n1CCc1ccc(S(N)(=O)=O)cc1` [Compound 12, 4-(2-(2-((2-(2-(2-Methylbenzylidene)hydrazineyl)-2-oxoethyl)thio)-4-oxoquinazolin-3(4H)-yl)ethyl)benzenesulfonamide] gave a melting point of 239 to 240 °C. This molecule returned a Ki at hCA I of 338 nM. Moreover, on hCA XII, the “Selectivity Analysis hCA I/XII” value is 5.31, the “Selectivity Analysis hCA II/XII” value is recorded as 1.09 and the affinity corresponds to a Ki of 63.5 nM. Also, on hCA IX, the “Selectivity Analysis hCA I/IX” value was 11.41, the “Selectivity Analysis hCA II/IX” value turned out to be 2.34 and the affinity corresponds to a Ki of 29.6 nM. Moreover, the affinity at hCA II, expressed as Ki, was 69.4 nM.

Molecule `NS(=O)(=O)c1ccc(CCn2c(SCC(=O)NN=Cc3ccccc3[N+](=O)[O-])nc3ccccc3c2=O)cc1` [Compound 13, 4-(2-(2-((2-(2-(2-Nitrobenzylidene)hydrazineyl)-2-oxoethyl)thio)-4-oxoquinazolin-3(4H)-yl)ethyl)benzenesulfonamide] displayed a melting point of 288 to 289 °C. Besides, the Ki on hCA I was 992 nM. For the same molecule, at hCA XII, the “Selectivity Analysis hCA I/XII” value came out at 46.34, the “Selectivity Analysis hCA II/XII” value is recorded as 26.60 and affinity was put at a Ki of 21.4 nM. Besides, at hCA IX, the “Selectivity Analysis hCA I/IX” value turned out to be 16.95; the “Selectivity Analysis hCA II/IX” value stood at 9.73; the affinity, expressed as Ki, was 58.5 nM. Further, at hCA II, the affinity, expressed as Ki, was 569 nM.

`NS(=O)(=O)c1ccc(CCn2c(SCC(=O)NN=Cc3ccc([N+](=O)[O-])cc3)nc3ccccc3c2=O)cc1` [Compound 14, 4-(2-(2-((2-(2-(4-Nitrobenzylidene)hydrazineyl)-2-oxoethyl)thio)-4-oxoquinazolin-3(4H)-yl)ethyl)benzenesulfonamide]: the melting point was 296 to 297 °C. Moreover, the Ki on hCA I came out at 635 nM. On hCA XII, the “Selectivity Analysis hCA I/XII” value is given as 20.83, the “Selectivity Analysis hCA II/XII” value is on record as 7.23 and the Ki was 30.5 nM. In addition, on hCA IX, the “Selectivity Analysis hCA I/IX” value is reported as 23.62, the “Selectivity Analysis hCA II/IX” value turned out to be 8.20 and affinity was put at a Ki of 26.9 nM. Also, the Ki on hCA II was 221 nM.

As for `CC(=NNC(=O)CSc1nc2ccccc2c(=O)n1CCc1ccc(S(N)(=O)=O)cc1)c1cccnc1` [Compound 27, 4-(2-(4-Oxo-2-((2-oxo-2-(2-(1-(pyridin-3-yl)ethylidene)hydrazineyl)ethyl)thio)quinazolin-3(4H)-yl)ethyl)benzenesulfonamide], affinity on hCA I was put at a Ki of 238 nM. On hCA XII, the “Selectivity Analysis hCA I/XII” value was determined as 6.87, the “Selectivity Analysis hCA II/XII” value was 0.31 and the Ki is 34.7 nM. Moreover, on hCA IX, the “Selectivity Analysis hCA I/IX” value is on record as 7.07, the “Selectivity Analysis hCA II/IX” value came out at 0.32 and the Ki was 33.7 nM. The affinity at hCA II corresponds to a Ki of 10.8 nM.

For the origin of these results see publication PMC9697198, “Carbonic Anhydrase Inhibition Activities of Schiff’s Bases Based on Quinazoline-Linked Benzenesulfonamide” (Molecules, 2022).
